Test results from patent US20230085307A1, “PYRIDAZINONE COMPOUND AND HERBICIDE” (NISSAN CHEMICAL CORPORATION, priority 2019, published 2023).

Key:
barnyard grass [1] = assay: Test Example 3: herbicidal effect by foliage application, Wagner pot (Table 18, symbol H); type: in vivo, barnyard grass (Echinochloa crus-galli)
In short: (§1)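 Plants were sown in alluvial soil held under 0.1–0.5 cm standing water and grown 14 days in a greenhouse at 25–30 °C. An emulsifiable formulation, water-diluted to the set dose, was then sprayed onto the foliage, and effects were scored three weeks later using previously defined criteria.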

Chinese sprangletop = assay: Test Example 3: herbicidal effect by foliage application, Wagner pot (Table 18, symbol D); type: in vivo, chinese sprangletop (Leptochloa chinensis)
In short: as §1

rice flat sedge = assay: Test Example 3: herbicidal effect by foliage application, Wagner pot (Table 18, symbol E); type: in vivo, rice flat sedge (Cyperus iria)
In short: as §1

southern crabgrass [2] = assay: Test Example 4: herbicidal effect by soil treatment (Table 19, symbol F); type: in vivo, southern crabgrass (Digitaria ciliaris)
In short: (§2)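 Applied as a water-diluted emulsion, the compound was sprayed onto soil covering newly sown seeds. Evaluation came three weeks after application, in a greenhouse held at 25° C. to 30° C.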

green foxtail [3] = assay: Test Example 4: herbicidal effect by soil treatment (Table 19, symbol G); type: in vivo, green foxtail (Setaria viridis)
In short: as §2

barnyard grass [4] = assay: Test Example 4: herbicidal effect by soil treatment (Table 19, symbol H); type: in vivo, barnyard grass (Echinochloa crus-galli)
In short: as §2

wild oat [5] = assay: Test Example 4: herbicidal effect by soil treatment (Table 19, symbol I); type: in vivo, wild oat (Avena fatua)
In short: as §2

blackgrass [6] = assay: Test Example 4: herbicidal effect by soil treatment (Table 19, symbol J); type: in vivo, blackgrass (Alopecurus myosuroides)
In short: as §2

Italian ryegrass [7] = assay: Test Example 4: herbicidal effect by soil treatment (Table 19, symbol K); type: in vivo, Italian ryegrass (Lolium multiflorum)
In short: as §2

windgrass [8] = assay: Test Example 4: herbicidal effect by soil treatment (Table 19, symbol L); type: in vivo, windgrass (Apera spica-venti)
In short: as §2

velvetleaf [9] = assay: Test Example 4: herbicidal effect by soil treatment (Table 19, symbol M); type: in vivo, velvetleaf (Abutilon theophrasti)
In short: as §2

redroot pigweed [10] = assay: Test Example 4: herbicidal effect by soil treatment (Table 19, symbol N); type: in vivo, redroot pigweed (Amaranthus retroflexus)
In short: as §2

lambsquarters [11] = assay: Test Example 4: herbicidal effect by soil treatment (Table 19, symbol O); type: in vivo, lambsquarters (Chenopodium album)
In short: as §2

chickweed [12] = assay: Test Example 4: herbicidal effect by soil treatment (Table 19, symbol P); type: in vivo, common chickweed (Stellaria media)
In short: as §2

persian speedwell [13] = assay: Test Example 4: herbicidal effect by soil treatment (Table 19, symbol R); type: in vivo, Persian speedwell (Veronica persica)
In short: as §2

southern crabgrass [14] = assay: Test Example 5: herbicidal effect by foliage application, plastic box (Table 20, symbol F); type: in vivo, southern crabgrass (Digitaria ciliaris); settings: foliage application, 320 g/ha, evaluated three weeks after application
In short: (§3)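 Sow seeds spot-wise in sterilized diluvial soil; cover with ~1.5 cm soil. Grow 14 days in greenhouse, 25° C. to 30° C. Spray foliage with emulsion diluted to predetermined amount. Rate effect after 3 weeks.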

green foxtail [15] = assay: Test Example 5: herbicidal effect by foliage application, plastic box (Table 20, symbol G); type: in vivo, green foxtail (Setaria viridis); settings: foliage application, 320 g/ha, evaluated three weeks after application
In short: as §3

barnyard grass [16] = assay: Test Example 5: herbicidal effect by foliage application, plastic box (Table 20, symbol H); type: in vivo, barnyard grass (Echinochloa crus-galli); settings: foliage application, 320 g/ha, evaluated three weeks after application
In short: as §3

wild oat [17] = assay: Test Example 5: herbicidal effect by foliage application, plastic box (Table 20, symbol I); type: in vivo, wild oat (Avena fatua); settings: foliage application, 320 g/ha, evaluated three weeks after application
In short: as §3

blackgrass [18] = assay: Test Example 5: herbicidal effect by foliage application, plastic box (Table 20, symbol J); type: in vivo, blackgrass (Alopecurus myosuroides); settings: foliage application, 320 g/ha, evaluated three weeks after application
In short: as §3

Italian ryegrass [19] = assay: Test Example 5: herbicidal effect by foliage application, plastic box (Table 20, symbol K); type: in vivo, Italian ryegrass (Lolium multiflorum); settings: foliage application, 320 g/ha, evaluated three weeks after application
In short: as §3

windgrass [20] = assay: Test Example 5: herbicidal effect by foliage application, plastic box (Table 20, symbol L); type: in vivo, windgrass (Apera spica-venti); settings: foliage application, 320 g/ha, evaluated three weeks after application
In short: as §3

velvetleaf [21] = assay: Test Example 5: herbicidal effect by foliage application, plastic box (Table 20, symbol M); type: in vivo, velvetleaf (Abutilon theophrasti); settings: foliage application, 320 g/ha, evaluated three weeks after application
In short: as §3

redroot pigweed [22] = assay: Test Example 5: herbicidal effect by foliage application, plastic box (Table 20, symbol N); type: in vivo, redroot pigweed (Amaranthus retroflexus); settings: foliage application, 320 g/ha, evaluated three weeks after application
In short: as §3

lambsquarters [23] = assay: Test Example 5: herbicidal effect by foliage application, plastic box (Table 20, symbol O); type: in vivo, lambsquarters (Chenopodium album); settings: foliage application, 320 g/ha, evaluated three weeks after application
In short: as §3

chickweed [24] = assay: Test Example 5: herbicidal effect by foliage application, plastic box (Table 20, symbol P); type: in vivo, common chickweed (Stellaria media); settings: foliage application, 320 g/ha, evaluated three weeks after application
In short: as §3

persian speedwell [25] = assay: Test Example 5: herbicidal effect by foliage application, plastic box (Table 20, symbol R); type: in vivo, Persian speedwell (Veronica persica); settings: foliage application, 320 g/ha, evaluated three weeks after application
In short: as §3

[26] = amount of applied herbicide 320 g/ha

With C#CCOc1ccc(-c2sc3ccc(F)cc3c2-c2c(OCC#C)c(C)nn(C)c2=O)cc1 [2-054] the “herbicidal effect on H (barnyard grass), rating 0-5” value (barnyard grass [1]; 320 g/ha) was 4 (Herbicidal rate of 70% or more and less than 90%), the “herbicidal effect on D (Chinese sprangletop), rating 0-5” value (Chinese sprangletop; 320 g/ha) was 5 (Herbicidal rate of 90% or more (almost completely withered)) and the “herbicidal effect on E (rice flat sedge), rating 0-5” value (rice flat sedge; 320 g/ha) was 3 (Herbicidal rate of 40% or more and less than 70%). For the same compound, the “herbicidal effect rating, F: southern crabgrass” value (southern crabgrass [2]; 320 g/ha) was 0 (Herbicidal rate of 5% or less (almost no effect)), the “herbicidal effect rating, G: green foxtail” value (green foxtail [3]; 320 g/ha) was 0 (Herbicidal rate of 5% or less (almost no effect)) and the “herbicidal effect rating, H: barnyard grass” value (barnyard grass [4]; 320 g/ha) was 0 (Herbicidal rate of 5% or less (almost no effect)). The “herbicidal effect rating, I: wild oat” value (wild oat [5]; 320 g/ha) was 0 (Herbicidal rate of 5% or less (almost no effect)), the “herbicidal effect rating, J: blackgrass” value (blackgrass [6]; 320 g/ha) was 0 (Herbicidal rate of 5% or less (almost no effect)) and the “herbicidal effect rating, K: Italian ryegrass” value (Italian ryegrass [7]; 320 g/ha) was 0 (Herbicidal rate of 5% or less (almost no effect)). The “herbicidal effect rating, L: windgrass” value (windgrass [8]; 320 g/ha) was 0 (Herbicidal rate of 5% or less (almost no effect)), the “herbicidal effect rating, M: velvetleaf” value (velvetleaf [9]; 320 g/ha) was 0 (Herbicidal rate of 5% or less (almost no effect)) and the “herbicidal effect rating, N: redroot pigweed” value (redroot pigweed [10]; 320 g/ha) was 3 (Herbicidal rate of 40% or more and less than 70%). For the same compound, the “herbicidal effect rating, O: lambsquarters” value (lambsquarters [11]; 320 g/ha) was 0 (Herbicidal rate of 5% or less (almost no effect)), the “herbicidal effect rating, P: chickweed” value (chickweed [12]; 320 g/ha) was 0 (Herbicidal rate of 5% or less (almost no effect)) and the “herbicidal effect rating, R: persian speedwell” value (persian speedwell [13]; 320 g/ha) was 3 (Herbicidal rate of 40% or more and less than 70%). For the same compound, the “herbicidal effect on F: southern crabgrass” value (southern crabgrass [14]) was 0 (Herbicidal rate of 5% or less (almost no effect)), the “herbicidal effect on G: green foxtail” value (green foxtail [15]) was 3 (Herbicidal rate of 40% or more and less than 70%) and the “herbicidal effect on H: barnyard grass” value (barnyard grass [16]) was 3 (Herbicidal rate of 40% or more and less than 70%). The “herbicidal effect on I: wild oat” value (wild oat [17]) was 0 (Herbicidal rate of 5% or less (almost no effect)), the “herbicidal effect on J: blackgrass” value (blackgrass [18]) was 0 (Herbicidal rate of 5% or less (almost no effect)) and the “herbicidal effect on K: Italian ryegrass” value (Italian ryegrass [19]) was 0 (Herbicidal rate of 5% or less (almost no effect)). The “herbicidal effect on L: windgrass” value (windgrass [20]) was 0 (Herbicidal rate of 5% or less (almost no effect)), the “herbicidal effect on M: velvetleaf” value (velvetleaf [21]) was 4 (Herbicidal rate of 70% or more and less than 90%) and the “herbicidal effect on N: redroot pigweed” value (redroot pigweed [22]) was 4 (Herbicidal rate of 70% or more and less than 90%). For the same compound, the “herbicidal effect on O: lambsquarters” value (lambsquarters [23]) was 3 (Herbicidal rate of 40% or more and less than 70%), the “herbicidal effect on P: chickweed” value (chickweed [24]) was 5 (Herbicidal rate of 90% or more (almost completely withered)) and the “herbicidal effect on R: persian speedwell” value (persian speedwell [25]) was 5 (Herbicidal rate of 90% or more (almost completely withered)).

Cc1ccc2sc(-c3ccc(F)cc3)c(-c3c(O)c(C)nn(C)c3=O)c2c1 [2-134] was tested, and the “herbicidal effect on H: barnyard grass” value (barnyard grass [1]; [26]) was 3 (Herbicidal rate of 40% or more and less than 70%), the “herbicidal effect on D: Chinese sprangletop” value (Chinese sprangletop; [26]) was 0 (Herbicidal rate of 5% or less (almost no effect)) and the “herbicidal effect on E: rice flat sedge” value (rice flat sedge; [26]) was 5 (Herbicidal rate of 90% or more (almost completely withered)). The “F: southern crabgrass, herbicidal effect rating” value (southern crabgrass [2]; [26]) was 2 (Herbicidal rate of 20% or more and less than 40%), the “G: green foxtail, herbicidal effect rating” value (green foxtail [3]; [26]) was 0 (Herbicidal rate of 5% or less (almost no effect)) and the “H: barnyard grass, herbicidal effect rating” value (barnyard grass [4]; [26]) was 0 (Herbicidal rate of 5% or less (almost no effect)). The “I: wild oat, herbicidal effect rating” value (wild oat [5]; [26]) was 0 (Herbicidal rate of 5% or less (almost no effect)), the “J: blackgrass, herbicidal effect rating” value (blackgrass [6]; [26]) was 0 (Herbicidal rate of 5% or less (almost no effect)) and the “K: Italian ryegrass, herbicidal effect rating” value (Italian ryegrass [7]; [26]) was 0 (Herbicidal rate of 5% or less (almost no effect)). For the same compound, the “L: windgrass, herbicidal effect rating” value (windgrass [8]; [26]) was 0 (Herbicidal rate of 5% or less (almost no effect)), the “M: velvetleaf, herbicidal effect rating” value (velvetleaf [9]; [26]) was 0 (Herbicidal rate of 5% or less (almost no effect)) and the “N: redroot pigweed, herbicidal effect rating” value (redroot pigweed [10]; [26]) was 5 (Herbicidal rate of 90% or more (almost completely withered)). For the same compound, the “O: lambsquarters, herbicidal effect rating” value (lambsquarters [11]; [26]) was 5 (Herbicidal rate of 90% or more (almost completely withered)), the “P: chickweed, herbicidal effect rating” value (chickweed [12]; [26]) was 4 (Herbicidal rate of 70% or more and less than 90%) and the “R: persian speedwell, herbicidal effect rating” value (persian speedwell [13]; [26]) was 4 (Herbicidal rate of 70% or more and less than 90%). The “herbicidal effect on F: southern crabgrass” value (southern crabgrass [14]) was 0 (Herbicidal rate of 5% or less (almost no effect)), the “herbicidal effect on G: green foxtail” value (green foxtail [15]) was 0 (Herbicidal rate of 5% or less (almost no effect)) and the “herbicidal effect on H: barnyard grass” value (barnyard grass [16]) was 0 (Herbicidal rate of 5% or less (almost no effect)). For the same compound, the “herbicidal effect on I: wild oat” value (wild oat [17]) was 0 (Herbicidal rate of 5% or less (almost no effect)), the “herbicidal effect on J: blackgrass” value (blackgrass [18]) was 0 (Herbicidal rate of 5% or less (almost no effect)) and the “herbicidal effect on K: Italian ryegrass” value (Italian ryegrass [19]) was 3 (Herbicidal rate of 40% or more and less than 70%). The “herbicidal effect on L: windgrass” value (windgrass [20]) was 0 (Herbicidal rate of 5% or less (almost no effect)), the “herbicidal effect on M: velvetleaf” value (velvetleaf [21]) was 5 (Herbicidal rate of 90% or more (almost completely withered)) and the “herbicidal effect on N: redroot pigweed” value (redroot pigweed [22]) was 5 (Herbicidal rate of 90% or more (almost completely withered)). The “herbicidal effect on O: lambsquarters” value (lambsquarters [23]) was 4 (Herbicidal rate of 70% or more and less than 90%), the “herbicidal effect on P: chickweed” value (chickweed [24]) was 5 (Herbicidal rate of 90% or more (almost completely withered)) and the “herbicidal effect on R: persian speedwell” value (persian speedwell [25]) was 5 (Herbicidal rate of 90% or more (almost completely withered)).
